Assay results published in patent publication US20250188040A1, “PHARMACEUTICAL COMPOSITIONS COMPRISING WRN HELICASE INHIBITORS” (Vividion Therapeutics, Inc., priority 2022, published 2025).
Read-outs that look alike come from different tables or passages of the source.

Tests used:
HCT 116 cells = experiment: Cell growth assay (CellTiter-Glo 2.0), HCT 116 MSI-H cell line; conditions: Homo sapiens, HCT-116, 120 h, read-out: Cell Growth Inhibition GI50 HCT-116
Protocol: (§1) The effects of compound on cellular viability were determined using the CellTiter-Glo® 2.0 Luminescent Cell Viability Assay (Promega, Madison, WI).
(§2) SW480 cells were seeded at 1,000 cells per well in Eagle's Minimum Essential Medium (EMEM) with 10% FBS. Both cell lines were seeded in a volume of 50 μL medium per well. […] The concentration range was adjusted as needed for compounds of different potencies. The cells treated with compounds were incubated for 5 days at 37° C. in 5% CO2. […] The plate was then read on a Clariostar plate reader (BMG Labtech, Cary, NC) in luminescence mode. The previously measured baseline cell viability was subtracted from the luminescence value of each well, and cell viability (% of DMSO) was plotted as a function of log compound concentration. The EC50 was then calculated for each compound using Dotmatics Software (San Diego, CA).

[1] = target: hWRN(519-1227)_C-H3CV-GFP-10His (Homo sapiens, UniProt Q14191); experiment: Helicase Assay for WRN Inhibition (ATP-dependent, fluorescence based)
Sequence of hWRN(519-1227)_C-H3CV-GFP-10His (Q14191 519-1227): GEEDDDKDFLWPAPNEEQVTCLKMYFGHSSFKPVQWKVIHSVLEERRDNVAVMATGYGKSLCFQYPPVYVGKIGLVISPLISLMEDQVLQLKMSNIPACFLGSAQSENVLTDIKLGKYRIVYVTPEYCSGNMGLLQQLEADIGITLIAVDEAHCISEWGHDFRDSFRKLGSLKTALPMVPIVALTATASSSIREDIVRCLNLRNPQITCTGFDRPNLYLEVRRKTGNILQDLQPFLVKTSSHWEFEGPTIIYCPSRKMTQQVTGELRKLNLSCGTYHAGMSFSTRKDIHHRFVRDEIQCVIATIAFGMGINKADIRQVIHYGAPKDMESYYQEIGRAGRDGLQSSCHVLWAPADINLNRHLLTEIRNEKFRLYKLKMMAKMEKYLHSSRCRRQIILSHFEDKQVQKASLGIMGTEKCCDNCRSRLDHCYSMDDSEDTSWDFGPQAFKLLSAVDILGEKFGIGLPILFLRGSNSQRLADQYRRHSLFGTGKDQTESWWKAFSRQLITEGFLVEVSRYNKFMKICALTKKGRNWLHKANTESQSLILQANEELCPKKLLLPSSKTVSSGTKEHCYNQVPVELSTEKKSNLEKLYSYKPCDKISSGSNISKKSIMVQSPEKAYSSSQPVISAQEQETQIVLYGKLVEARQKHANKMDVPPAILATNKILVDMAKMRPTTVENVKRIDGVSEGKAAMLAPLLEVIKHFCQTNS

WRN C727 = target: T1, WRN C727 (Homo sapiens, UniProt Q14191); experiment: Target engagement, in vitro (lysate), OCI-AML2; assay type: binding; conditions: read-out: OCI-AML2 WRN C727 TE50 in vitro (lysate)
T1 construct: endogenous in cells; host or cells: OCI-AML2
T1 sequence (Q14191 whole entry): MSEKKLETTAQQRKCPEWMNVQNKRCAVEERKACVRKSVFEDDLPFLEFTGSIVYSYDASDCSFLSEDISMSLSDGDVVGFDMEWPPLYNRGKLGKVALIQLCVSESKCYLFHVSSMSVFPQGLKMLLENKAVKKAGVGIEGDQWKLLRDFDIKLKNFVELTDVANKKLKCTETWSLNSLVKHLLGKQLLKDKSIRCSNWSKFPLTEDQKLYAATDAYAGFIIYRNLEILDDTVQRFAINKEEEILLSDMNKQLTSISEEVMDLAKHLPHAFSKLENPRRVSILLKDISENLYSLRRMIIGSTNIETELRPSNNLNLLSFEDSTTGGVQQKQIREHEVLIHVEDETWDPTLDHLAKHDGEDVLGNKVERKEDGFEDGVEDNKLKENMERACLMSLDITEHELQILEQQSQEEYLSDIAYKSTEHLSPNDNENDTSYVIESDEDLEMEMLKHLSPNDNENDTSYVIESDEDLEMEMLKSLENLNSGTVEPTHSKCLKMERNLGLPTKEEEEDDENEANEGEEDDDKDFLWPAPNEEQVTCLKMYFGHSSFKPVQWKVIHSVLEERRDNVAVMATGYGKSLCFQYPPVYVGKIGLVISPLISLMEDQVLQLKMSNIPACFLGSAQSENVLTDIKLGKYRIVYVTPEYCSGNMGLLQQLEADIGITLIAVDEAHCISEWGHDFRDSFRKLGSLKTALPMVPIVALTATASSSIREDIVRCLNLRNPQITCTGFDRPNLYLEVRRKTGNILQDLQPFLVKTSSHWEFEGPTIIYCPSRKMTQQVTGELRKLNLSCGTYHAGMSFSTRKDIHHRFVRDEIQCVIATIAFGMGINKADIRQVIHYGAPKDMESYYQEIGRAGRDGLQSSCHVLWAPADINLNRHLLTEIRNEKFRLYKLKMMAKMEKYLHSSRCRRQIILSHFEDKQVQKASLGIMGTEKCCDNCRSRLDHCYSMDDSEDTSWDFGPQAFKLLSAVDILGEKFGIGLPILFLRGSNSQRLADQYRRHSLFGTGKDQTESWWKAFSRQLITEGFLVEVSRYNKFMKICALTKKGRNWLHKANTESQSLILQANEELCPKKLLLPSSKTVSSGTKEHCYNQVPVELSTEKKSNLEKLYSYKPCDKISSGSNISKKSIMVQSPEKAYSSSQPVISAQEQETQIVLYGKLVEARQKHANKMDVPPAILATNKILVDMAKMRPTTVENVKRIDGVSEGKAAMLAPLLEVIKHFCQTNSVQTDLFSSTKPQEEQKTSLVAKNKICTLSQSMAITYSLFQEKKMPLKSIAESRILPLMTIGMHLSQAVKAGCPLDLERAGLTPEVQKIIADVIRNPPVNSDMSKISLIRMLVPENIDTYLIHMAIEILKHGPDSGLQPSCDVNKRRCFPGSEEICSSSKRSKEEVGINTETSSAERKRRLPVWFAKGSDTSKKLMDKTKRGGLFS
In short: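 Percent engagement of WRN C727 is expressed against DMSO-treated samples, measured by PRM mass spectrometry of streptavidin-enriched, probe-tagged tryptic peptides. Compound dose responses preceded probe labelling of solvent-exposed cysteines, in either living OCI-AML2 cells or their lysates.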

SW480 cells = experiment: Cell growth assay (CellTiter-Glo 2.0), SW480 MSS cell line; conditions: Homo sapiens, SW480, 120 h, read-out: Cell Growth Inhibition GI50 SW480
Protocol: as §1, §2

[2] = WRN Helicase IC50, 30 min preincubation with ATP, 30 min reaction

| Structure (SMILES) | GI50 (HCT 116 cells) | IC50 [1, 2] | IC50 (WRN C727) | GI50 (SW480 cells) | IC50 [1] |
| --- | --- | --- | --- | --- | --- |
| CS(=O)(=O)/C=C/[C@@H](NC(=O)c1cnc(C(F)C2CC2)nc1Oc1ccccc1)C1CC1 (stereo partly drawn) [Example 37, N—((S,E)-1-cyclopropyl-3-(methylsulfonyl)allyl)-2-(cyclopropylfluoromethyl)-4-phenoxypyrimidine-5-carboxamide] | 35.9 nM | 240 nM | 450 nM | 28600 nM |  |
| C[C@@H](/C=C/S(C)(=O)=O)NC(=O)c1cnc(C2(C)CC2)nc1Oc1ccccc1 [Example 38, (S,E)-2-(1-methylcyclopropyl)-N-(4-(methylsulfonyl)but-3-en-2-yl)-4-phenoxypyrimidine-5-carboxamide] | 157 nM | 434 nM | 800 nM | 11700 nM |  |
| CC1(c2ncc(C(=O)N3CC(=CS(C)(=O)=O)C3)c(Oc3ccccc3)n2)CC1 [Example 39, (2-(1-methylcyclopropyl)-4-phenoxypyrimidin-5-yl)(3-((methylsulfonyl)methylene)azetidin-1-yl)methanone] | 110 nM |  | 640 nM | 14000 nM | 240 nM |
| C[C@@H](/C=C/S(C)(=O)=O)NC(=O)c1cnc(CC2(C)CC2)nc1Oc1ccccc1 [Example 40, (S,E)-2-((1-methylcyclopropyl)methyl)-N-(4-(methylsulfonyl)but-3-en-2-yl)-4-phenoxypyrimidine-5-carboxamide] | 1200 nM | 2700 nM | 3480 nM | 49000 nM |  |
| CC1(Cc2ncc(C(=O)N3CC(=CS(C)(=O)=O)C3)c(Oc3ccccc3)n2)CC1 [Example 41, (2-((1-methylcyclopropyl)methyl)-4-phenoxypyrimidin-5-yl)(3-((methylsulfonyl)methylene)azetidin-1-yl)methanone] | 720 nM |  | 2060 nM | 33000 nM | 1400 nM |
| C[C@@H](/C=C/S(C)(=O)=O)NC(=O)c1cnc(C2(c3ccccc3)CC2)nc1Oc1ccccc1 [Example 42, (S,E)-N-(4-(methylsulfonyl)but-3-en-2-yl)-4-phenoxy-2-(1-phenylcyclopropyl)pyrimidine-5-carboxamide] | 355 nM | 1700 nM | 4440 nM | 5200 nM |  |
| CS(=O)(=O)/C=C/CNC(=O)c1cnc(C2CCC2)nc1Oc1ccccc1 [Example 43, (E)-2-cyclobutyl-N-(3-(methylsulfonyl)allyl)-4-phenoxypyrimidine-5-carboxamide] | 670 nM | 1500 nM | 18700 nM | 7800 nM |  |
| CS(=O)(=O)/C=C/[C@@H](NC(=O)c1cnc(C2CCC2)nc1Oc1ccccc1)C1CC1 [Example 45, (S,E)-2-cyclobutyl-N-(1-cyclopropyl-3-(methylsulfonyl)allyl)-4-phenoxypyrimidine-5-carboxamide] | 36.7 nM | 86 nM | 110 nM | 13000 nM |  |
| C[C@@H](/C=C/S(C)(=O)=O)NC(=O)c1cnc(CC2CCC2)nc1Oc1ccccc1 [Example 53, (S,E)-2-(cyclobutylmethyl)-N-(4-(methylsulfonyl)but-3-en-2-yl)-4-phenoxypyrimidine-5-carboxamide] | 970 nM | 3600 nM | 14500 nM | > 10000 nM |  |
| C[C@@H](/C=C/S(C)(=O)=O)NC(=O)c1cnc(CC2CCCC2)nc1Oc1ccccc1 [Example 54, (S,E)-2-(cyclopentylmethyl)-N-(4-(methylsulfonyl)but-3-en-2-yl)-4-phenoxypyrimidine-5-carboxamide] | 770 nM | 2600 nM | 50000 nM | > 10000 nM |  |
| C[C@@H](/C=C/S(C)(=O)=O)NC(=O)c1cnc(C2CC3(CC3)C2)nc1Oc1ccccc1 [Example 55, (S,E)-N-(4-(methylsulfonyl)but-3-en-2-yl)-4-phenoxy-2-(spiro[2.3]hexan-5-yl)pyrimidine-5-carboxamide] | 150 nM | 910 nM | 8680 nM | 6200 nM |  |
| CC(C)(C)c1ncc(C(=O)N2CC(=CS(=O)(=O)C3CCOCC3)C2)c(Oc2ccccc2)n1 [Example 62, (2-(tert-butyl)-4-phenoxypyrimidin-5-yl)(3-(((tetrahydro-2H-pyran-4-yl)sulfonyl)methylene)azetidin-1-yl)methanone] | 265 nM |  | 4090 nM | 13200 nM | 650 nM |
| COC[C@@H](/C=C/S(C)(=O)=O)NC(=O)c1cnc(C(C)(C)C)nc1Oc1ccccc1 [Example 63, (R,E)-2-(tert-butyl)-N-(1-methoxy-4-(methylsulfonyl)but-3-en-2-yl)-4-phenoxypyrimidine-5-carboxamide] | 30.6 nM | 87.9 nM | 500 nM | 31000 nM |  |

Second part, the compound after the results:

| GI50 (HCT 116 cells) | IC50 [1, 2] | IC50 (WRN C727) | GI50 (SW480 cells) | IC50 [1] | Structure (SMILES) |
| --- | --- | --- | --- | --- | --- |
| 2300 nM | 8600 nM | > 100000 nM | 36000 nM |  | COC[C@H](/C=C/S(C)(=O)=O)NC(=O)c1cnc(C(C)(C)C)nc1Oc1ccccc1 [Example 64, (S,E)-2-(tert-butyl)-N-(1-methoxy-4-(methylsulfonyl)but-3-en-2-yl)-4-phenoxypyrimidine-5-carboxamide] |
| 87 nM | 300 nM | 1170 nM | 25400 nM |  | CC(C)(C)c1ncc(C(=O)N[C@H](/C=C/S(C)(=O)=O)CC2CC2)c(Oc2ccccc2)n1 [Example 65, (S,E)-2-(tert-butyl)-N-(1-cyclopropyl-4-(methylsulfonyl)but-3-en-2-yl)-4-phenoxypyrimidine-5-carboxamide] |
| 30.2 nM | 113 nM | 380 nM | 21800 nM |  | CC(C)(C)c1ncc(C(=O)N[C@H](/C=C/S(C)(=O)=O)C2CCC2)c(Oc2ccccc2)n1 [Example 66, (S,E)-2-(tert-butyl)-N-(1-cyclobutyl-3-(methylsulfonyl)allyl)-4-phenoxypyrimidine-5-carboxamide] |
| 43.9 nM | 140 nM | 500 nM | 9780 nM |  | CC(C)(C)c1ncc(C(=O)N[C@H](/C=C/S(C)(=O)=O)C2CC(F)(F)C2)c(Oc2ccccc2)n1 [Example 67, (S,E)-2-(tert-butyl)-N-(1-(3,3-difluorocyclobutyl)-3-(methylsulfonyl)allyl)-4-phenoxypyrimidine-5-carboxamide] |
| 230 nM | 180 nM | 1000 nM | 31400 nM |  | CSC[C@@H](/C=C/S(C)(=O)=O)NC(=O)c1cnc(C(C)(C)C)nc1Oc1ccccc1 [Example 68, (R,E)-2-(tert-butyl)-N-(4-(methylsulfonyl)-1-(methylthio)but-3-en-2-yl)-4-phenoxypyrimidine-5-carboxamide] |
| 1220 nM | 3390 nM | 11000 nM | 51600 nM |  | CO[C@H](C)[C@@H](/C=C/S(C)(=O)=O)NC(=O)c1cnc(C(C)(C)C)nc1Oc1ccccc1 [Example 69, 2-(tert-butyl)-N-((3R,4R,E)-4-methoxy-1-(methylsulfonyl)pent-1-en-3-yl)-4-phenoxypyrimidine-5-carboxamide] |
| 130 nM | 240 nM | 790 nM | > 58700 nM |  | CC(C)(C)c1ncc(C(=O)N[C@H](/C=C/S(C)(=O)=O)C2CCOCC2)c(Oc2ccccc2)n1 [Example 70, (S,E)-2-(tert-butyl)-N-(3-(methylsulfonyl)-1-(tetrahydro-2H-pyran-4-yl)allyl)-4-phenoxypyrimidine-5-carboxamide] |
